Values quoted from earlier work in patent publication US20230248696A1, “LENALIDOMIDE PRODRUGS, POLYMERIC CONJUGATES, AND FORMULATIONS THEREOF, AND THEIR USES FOR THE TREATMENT OF MULTIPLE MYELOMA” (DYNAMIC BIOLOGICS INC., priority 2019, published 2023).

Experiments:
[1] = in vitro, versus racemic lenalidomide
TNF-alpha = conditions: in vitro, versus racemic lenalidomide
IL-2 = conditions: in vitro, versus racemic lenalidomide
KG-1 cells = conditions: cell line without chromosome 5 deletions
[2] = high solubility and low permeability
[3] = tested on: TNF-α, IL-1β, IL-6 and IL-12
[4] = tested on: IL-10, IL-2 and Interferon gamma (IFN-γ); conditions: peripheral blood mononuclear cells
[5] = not given; remark: listed apart in the source

Compound | potency for anti-proliferative activities [1] | potency for TNF-alpha inhibition (TNF-alpha) | potency for IL-2 induction (increased production) (IL-2) | inhibiting growth of Namalwa cells (Namalwa cells) | inhibiting growth of KG-1 cells (KG-1 cells) | BCS class [2] | inhibition of COX-2 expression (cyclooxygenase-2 (COX-2)) | patients discontinuing maintenance therapy because of neurotoxicity (maintenance therapy) | patients with dyspepsia (multiple myeloma patients treated with lenalidomide) | inhibition of COX-1 expression (COX-1) | inhibition of pro-inflammatory cytokines TNF-α, IL-1β, IL-6 and IL-12 [3] | production of IL-10, IL-2 and IFN-γ [4] | reduction of maximal plasma concentration (Cmax) by co-administration with food ([5]; co-administration with food) | oral lenalidomide dose absorbed ([5]; oral, fasting conditions) | reduction of area under the concentration-time curve (AUC) by food ([5]; oral, with food) | reduction of maximum concentration (Cmax) by food ([5]; oral, with food)
[2H]C1([2H])C(=O)NC(=O)[C@@]([2H])(N2Cc3c(N)cccc3C2=O)C1([2H])[2H] [CTP-221] | greater potency compared to racemic lenalidomide | greater potency compared to racemic lenalidomide | greater potency compared to racemic lenalidomide | – | – | – | – | – | – | – | – | – | – | – | – | –
Nc1cccc2c1CN(C1CCC(=O)NC1=O)C2=O (racemic) [lenalidomide, 3-(4′ aminoisoindoline-1′-one)-1-piperidine-2,6-dione] | – | – | – | effective | much less effective | 3 | inhibits | 75% | 20% | not | potent inhibitor | increases production | 36% | > 90% | 20% | 50%
